This note sets out measurements from paper PMC5118696, “Identification of inhibitors that dually target the new permeability pathway and dihydroorotate dehydrogenase in the blood stage of Plasmodium falciparum” (Scientific Reports, 2016).

In assay [1] the test system is Hyp1-NLuc Plasmodium falciparum-infected erythrocytes (new permeability pathway, NPP). Put plainly: microbe, parasite or virus in culture. Particulars: Erythrocyte, 0.33 h, read-out: Mean RLU at 28 min (As % of DMSO control).
Assay [2] shares this test system. Description: microbe, parasite or virus in culture. The following applies: Erythrocyte, 0.33 h, read-out: % of control remaining.

Read-outs that look alike come from different tables or passages of the source.

For `CCN(CC)CCn1c(=N)n(CC(O)c2ccc(Cl)c(Cl)c2)c2ccccc21` (centres unmarked) [MMV000248], the activity at 2 µM in assay [1] came out at 97.6%; in assay [2] it was 98.3%.
`CCOc1ccc(Nc2c3ccccc3nc3ccccc23)cc1` [MMV000304]: the figures for the activity at 2 µM in assay [1] and in assay [2] were 107% and 109%, respectively.
As to `Cc1ccc2nc(C)cc(Nc3cccc(C(F)(F)F)c3)c2c1` [MMV000326], the activity at 2 µM worked out at 110% in assay [1] and 118% in assay [2].
Consider `CCn1c2c(c(=N)c3c1CCC3)CCCC2` [MMV000340], for which the activity at 2 µM in assay [1] was found to be 105%; in assay [2], 104%.
Consider `Oc1ccc(Br)cc1CN1CCN(Cc2cccc(F)c2)CC1` [MMV000356], for which the activity at 2 µM in assay [1] is 101%; in assay [2], 98.9%.
Consider `CC(C)(C)c1ccc2c(c1)CN(Cc1ccc(Cl)cc1)CO2` [MMV000442], for which the figures for the activity at 2 µM in assay [1] and in assay [2] were 109% and 113%, respectively.
For `CCOc1ccc2c(c1)CN(Cc1ccc(Cl)cc1)CO2` [MMV000443], the activity at 2 µM in assay [1] is 99.2%; in assay [2], 94.2%.
In the case of `CCCCCn1c(=N)n(CC(O)COc2cccc(C)c2)c2ccccc21` (centres unmarked) [MMV000444], the activity at 2 µM in assay [1] came out at 95.8%; in assay [2], 99.2%.
Consider `CCCCCCn1c(=N)n(CC(O)COc2cccc(C)c2)c2ccccc21` (centres unmarked) [MMV000445], for which the results for the activity at 2 µM in assay [1] and in assay [2] were 87.2% and 93.8%, respectively.
Take `CN(C)CCCNc1c2ccccc2nc2ccccc12` [MMV000448]: the activity at 2 µM in assay [1] and in assay [2] was 102% throughout.
Regarding `CCOc1cc2c(cc1OCC)C(c1cc(Cl)ccc1O)NCC2` (centres unmarked) [MMV000478], the activity at 2 µM in assay [1] was determined as 104%; in assay [2], 95.3%.
In the case of `CCOc1cc2c(cc1OCC)C(c1cc(Cl)c(O)c(OCC)c1)NCC2` (centres unmarked) [MMV000481], the activity at 2 µM in assay [1] is 112%; in assay [2], 114%.
Take `CCOc1cc2c(cc1OCC)C(c1cc(C)c(O)c(C)c1)NCC2` (centres unmarked) [MMV000483]: the activity at 2 µM in assay [1] is 103%; in assay [2], 102%.
Consider `CCN(CC)c1cc(C)c2cc(NC(=O)c3cccc(OC)c3)ccc2n1` [MMV000498], for which the activity at 2 µM worked out at 107% in assay [1] and 118% in assay [2].
In the same order, the values of `CCCN(CCC)CCCNC(=O)c1cc2c(-c3ccc(OC)c(OC)c3)nn(C)c2s1` [MMV000561] are 107% and 106%.
Turning to `COc1ccc(C2Sc3ccccc3N=C3C2=C(O)c2ccccc23)cc1` (centres unmarked) [MMV000563], the results for the activity at 2 µM in assay [1] and in assay [2] were 101% and 106%, respectively.
`CCc1ccc(Nc2cc(C)c3ccc(O)cc3n2)cc1` [MMV000570]: the results for the activity at 2 µM in assay [1] and in assay [2] were 106% and 107%, respectively.
As for `COc1ccc(-c2cc(=O)oc3c4c(ccc23)OCN(Cc2ccc(F)cc2)C4)cc1` [MMV000604], the results for the activity at 2 µM in assay [1] and in assay [2] were 104% and 106%, respectively.
The corresponding values for `COc1ccc(C(O)(CCC(C)C)C(CN2CCOCC2)c2ccc(Cl)cc2)cc1` (centres unmarked) [MMV000617] are 116% and 131%.
For the molecule `CCCCC(O)(c1ccc(Cl)cc1)C(CN1CCOCC1)c1ccc(Cl)cc1` (centres unmarked) [MMV000619], the values for the activity at 2 µM in assay [1] and in assay [2] were 108% and 114%, respectively.
On to `CC(O)(c1ccc(Cl)cc1)C(CN1CCCCC1)c1ccccc1` (centres unmarked) [MMV000620], for which the results for the activity at 2 µM in assay [1] and in assay [2] were 100% and 114%, respectively.
In the same order, the values of `CCCCCCC(O)(c1ccc(F)cc1)C(CN1CCOCC1)c1ccccc1` (centres unmarked) [MMV000621] are 106% and 117%.
Turning to `CC1CCCCN1CCCNC(=O)c1ccc2c(c1)sc1nc(-c3ccc(F)cc3)cn12` (centres unmarked) [MMV000634], the values for the activity at 2 µM in assay [1] and in assay [2] were 94.7% and 67.5%, respectively.
For `COc1ccc(NC(=O)C2c3ccccc3C(=O)N(CC(C)C)C2c2cccs2)cc1Cl` (centres unmarked) [MMV000642], the activity at 2 µM turned out to be 94.6% in assay [1] and 94% in assay [2].
Take `COc1ccccc1CNC(=O)C1c2ccccc2C(=O)N(CC(C)C)C1c1cccs1` (centres unmarked) [MMV000648]: the figures for the activity at 2 µM in assay [1] and in assay [2] were 108% and 105%, respectively.
In the same order, the values of `CCOc1ccccc1CNC(=O)C1c2ccccc2C(=O)N(CC(C)C)C1c1cccs1` (centres unmarked) [MMV000653] are 105% and 119%.
In the same order, the values of `COc1ccc(NC(=O)C2c3ccccc3C(=O)N(CC(C)C)C2c2cccs2)cc1` (centres unmarked) [MMV000662] are 85.9% and 85.7%.
`Cc1ccc(C2CC(C(F)(F)F)n3nc(C(=O)N4CCN(C(c5ccccc5)c5ccccc5)CC4)cc3N2)cc1` (centres unmarked) [MMV000699]: the activity at 2 µM was found to be 101% in assay [1] and 100% in assay [2].
The corresponding values for `CCOC(=O)c1cnc2ccc(OC)cc2c1Nc1ccc(N2CCN(C)CC2)cc1` [MMV000704] are 106% and 94.6%.
`Cc1ccnc(NC(c2cccc(OCc3ccccc3)c2)c2ccc3cccnc3c2O)c1` (centres unmarked) [MMV000720]: the activity at 2 µM in assay [1] turned out to be 102%; in assay [2], 108%.
`Oc1ccc(-c2nc(-c3ccc4oc5ccc(-c6[nH]c(-c7ccc(O)cc7)nc6-c6ccccc6)cc5c4c3)c(-c3ccccc3)[nH]2)cc1` [MMV000753]: the activity at 2 µM was found to be 88.1% in assay [1] and 89.5% in assay [2].
For `Oc1c(CN2CCN(c3ccccc3F)CC2)cc(Br)c2cccnc12` [MMV000760], the activity at 2 µM in assay [1] is 112%; in assay [2] it was 114%.
Consider `CCCOCc1cc(CN2CCN(c3cccc(Cl)c3)CC2)c(O)c2ncccc12` [MMV000787], for which the results for the activity at 2 µM in assay [1] and in assay [2] were 101% and 111%, respectively.
The corresponding values for `CC(C)OCc1cc(CN2CCN(c3cccc(Cl)c3)CC2)c(O)c2ncccc12` [MMV000788] are 109% and 107%.
For `OC(CNCc1ccccc1)Cn1c2ccccc2c2ccccc21` (centres unmarked) [MMV000839], the activity at 2 µM in assay [1] turned out to be 107%; in assay [2], 110%.
Take `OC(CNC1CCCC1)Cn1c2ccccc2c2ccccc21` (centres unmarked) [MMV000848]: the activity at 2 µM in assay [1] amounted to 112%; in assay [2] it was 110%.
`Cc1ccc(NC(=O)Nc2cccc(Cl)c2)cc1F` [MMV000911]: the figures for the activity at 2 µM in assay [1] and in assay [2] were 115% and 114%, respectively.
`COc1ccc2c(c1OC)C(=O)N1c3ccccc3N=C(c3ccc(C)cc3)CC21` (centres unmarked) [MMV000917]: the activity at 2 µM in assay [1] worked out at 90.9%; in assay [2], 94.9%.
Regarding `COc1ccc(Nc2nc(NCc3ccccc3)c3ccccc3n2)cc1` [MMV000963], the results for the activity at 2 µM in assay [1] and in assay [2] were 103% and 106%, respectively.
`O=C1CC(O)(C(F)(F)C(F)(F)F)Oc2ccccc21` (centres unmarked) [MMV000972]: the activity at 2 µM is 90.2% in assay [1] and 82.2% in assay [2].
The corresponding values for `CN1CCN(c2nc(Nc3ccc(O)cc3)nc3ccccc23)CC1` [MMV000986] are 102% and 101%.
For `Cc1ccc(Nc2nc(NCCO)c3ccccc3n2)cc1C` [MMV001038], the activity at 2 µM in assay [1] and in assay [2] was 102% each time.
As for `OCCNc1nc(Nc2ccc(Cl)c(Cl)c2)nc2ccccc12` [MMV001041], the figures for the activity at 2 µM in assay [1] and in assay [2] were 97.4% and 95.1%, respectively.
